Type in all cases: cell-based
The subject of assay [1] is SMN2. Put plainly: RT-qPCR canonical junction panel assay, SMN2. Conditions: gene panel, read-out: SMN2 IC50 (decrease in CJ mRNA levels). As for the experimental part: (§1) Example 44: Exemplary splicing assay for monitoring expression levels of splice variants Compounds described herein were used to modulate RNA transcript abundance in cells. The expression of a target mRNA was measured by detecting the formation of an exon-exon junction in the canonical transcript (CJ). A compound mediated exon-inclusion event was detected by observing an increase in formation of a new junction with an alternative exon (AJ). Real-time qPCR assays were used to detect these splicing switches and interrogate the potency of various compounds towards different target genes. A high-throughput real time quantitative PCR (RT-qPCR) assay was developed to measure these two isoforms of the mRNA (CJ and AJ) for an exemplary gene, HTT, together with a control housekeeping gene, GAPDH or GUSB or PPIA, used for normalization. Briefly, the A673 or K562 cell line was treated with various compounds described herein (e.g., compounds of Formula (I)). After treatment, the levels of the HTT mRNA targets were determined from each sample of cell lysate by cDNA synthesis followed by qPCR.
(§2) The A673 cell line was cultured in DMEM with 10% FBS. Cells were diluted with full growth media and plated in a 96-well plate (15,000 cells in 100 µl media per well). The plate was incubated at 37° C. with 5% CO2 for 24 hours to allow cells to adhere. An 11-point 3-fold serial dilution of the compounds was made in DMSO then diluted in media in an intermediate plate. Compounds were transferred from the intermediate plate to the cell plate with the top dose at a final concentration of 10 uM in the well. Final DMSO concentration was kept at or below 0.25%. The cell plate was returned to the incubator at 37° C. with 5% CO2 for an additional 24 hours.
(§3) The K562 cell line was cultured in IMDM with 10% FBS. For K562, cells were diluted with full growth media and plated in either a 96-well plate (50,000 cells in 50 uL media per well) or a 384-well plate (8,000-40,000 cells in 45 uL media per well). An 11-point 3-fold serial dilution of the compounds were made in DMSO then diluted in media in an intermediate plate. Compound was transferred from the intermediate plate to the cell plate with the top dose at a final concentration of 10 uM in the well. Final DMSO concentration was kept at or below 0.25%. Final volume was 100 uL for 96-well plate and 50 uL for 384-well plate. The cell plate was then placed in an incubator at 37° C. with 5% CO2 for 24 hours.
(§4) The cells were then gently washed with 50 uL-100 uL cold PBS before proceeding to addition of lysis buffer. 30 uL-50 uL of room temperature lysis buffer with DNAse I (and optionally RNAsin) was added to each well. Cells were shaken/mixed thoroughly at room temperature for 5-10 minutes for lysis to take place and then 3 uL-5 uL of room temperature stop solution was added and wells were shaken/mixed again. After 2-5 minutes, the cell lysate plate was transferred to ice for RT-qPCR reaction setup. The lysates could also be frozen at ˜80° C. for later use.
(§5) In some cases, a direct lysis buffer was used. An appropriate volume of 3× lysis buffer (10 mM Tris, 150 mM NaCl, 1.5%-2.5% Igepal and 0.1-1 U/uL RNAsin, pH 7.4) was directly added to either K562 or A673 cells in media and mixed by pipetting 3 times. The plates were then incubated at room temperature with shaking/rocking for 20-50 minutes to allow for lysis to take place. After this time, the cell lysate plate was transferred to ice to set up for the RT-qPCR reactions. The lysates could also be frozen at −80° C. for later use.
(§6) To set up 10 uL RT-qPCR reactions, cell lysates were transferred to 384-well qPCR plates containing the master mix according to the table below. The plates were sealed, gently vortexed, and spun down before the run. The volumes were adjusted accordingly in some instances where the reaction was carried in 20 uL. The table below summarizes the components of the RT-qPCR reactions: […]

Assay [2] has as its system HTT. As to the kind of experiment: RT-qPCR canonical junction panel assay, HTT. The conditions noted are these: gene panel, read-out: HTT IC50 (decrease in CJ mRNA levels). As to the method: as §1, §2, §3, §4, §5, §6
The test system of assay [3] is Target C. As to the kind of experiment: RT-qPCR canonical junction panel assay, Target C. Conditions: gene panel, read-out: Target C IC50 (decrease in CJ mRNA levels). As to the method:
as §1, §2, §3, §4, §5, §6

The subject of assay [4] is HTT. Put plainly: RT-qPCR splicing assay for HTT mRNA isoforms (canonical junction CJ and alternative junction AJ). The conditions noted are these: A673 or K562 cell line, 24 hours treatment. As to the method: as §1, §2, §3, §4, §5, §6
Where [5] appears, read: decrease in CJ mRNA levels, read-out: HTT CJ AC50.
Where [6] appears, read: increase in AJ mRNA, read-out: HTT AJ AC50.

Data on nine molecules can be found in patent US20240279239A1, “COMPOUNDS AND METHODS FOR MODULATING SPLICING” (REMIX THERAPEUTICS INC., priority 2020, published 2024).

Like-named read-outs stand apart in the source and are kept apart here.

For `Cc1cn2cc(-n3cnc4nc(N5CCN(C)CC5)sc4c3=O)cc(F)c2n1` [Compound 228, 6-(8-fluoro-2-methylimidazo[1,2-α]pyridin-6-yl)-2-(4-methylpiperazin-1-yl)thiazolo[4,5-d]pyrimidin-7(6H)-one], the IC50 in assay [1], in assay [2] and in assay [3] was 1000 to 10000 nM in each case. The AC50 in assay [4] (setting [5]) and in assay [4] (setting [6]) was 1000 to 10000 nM each time.
For `Cc1cn2nc(-c3cn4c(=O)cc(N5CCNC6(CC6)C5)nc4s3)cc(C)c2n1` [Compound 212, 2-(2,8-dimethylimidazo[1,2-b]pyridazin-6-yl)-7-(4,7-diazaspiro[2.5]octan-7-yl)-5H-thiazolo[3,2-α]pyrimidin-5-one], the IC50 in assay [1], in assay [2] and in assay [3] was 1000 to 10000 nM each time. Also, the AC50 in assay [4] (setting [5]) and in assay [4] (setting [6]) was 1000 to 10000 nM throughout.
With `Cc1cn2cc(-c3cc4ncn(C5CCNCC5)c(=O)c4s3)cc(F)c2n1` [Compound 235, 6-(8-fluoro-2-methylimidazo[1,2-α]pyridin-6-yl)-3-(piperidin-4-yl)thieno[3,2-d]pyrimidin-4(3H)-one], the IC50 is under 100 nM in assay [1], under 100 nM in assay [2] and 100 to 1000 nM in assay [3]. Moreover, the AC50 in assay [4] (setting [5]) and in assay [4] (setting [6]) was under 100 nM each time.
With `Cc1cn2nc(-c3cc4ncn(C5CCN(C)CC5)c(=O)c4s3)cc(C)c2n1` [Compound 239, 6-(2,8-dimethylimidazo[1,2-b]pyridazin-6-yl)-3-(1-methylpiperidin-4-yl)thieno[3,2-d]pyrimidin-4(3H)-one], the results for the IC50 in assay [1], in assay [2] and in assay [3] were under 100 nM, 1000 to 10000 nM and over 10000 nM, respectively. Besides, the AC50 in assay [4] (setting [5]) and in assay [4] (setting [6]) was 1000 to 10000 nM each time.
Regarding `Cc1cc(-c2cc3ncn(C4CCN(C)CC4)c(=O)c3s2)cc2cn(C)nc12` [Compound 237, 6-(2,7-dimethyl-2H-indazol-5-yl)-3-(1-methylpiperidin-4-yl)thieno[3,2-d]pyrimidin-4(3H)-one], the results for the IC50 in assay [1], in assay [2] and in assay [3] were under 100 nM, 100 to 1000 nM and 1000 to 10000 nM, respectively. For the same molecule, the AC50 in assay [4] (setting [5]) and in assay [4] (setting [6]) was 100 to 1000 nM in each case.
`Cc1cn2cc(-n3cnc4nc(N5CCN(C)CC5)sc4c3=O)cc(C(F)(F)F)c2n1` [Compound 230, 6-(2-methyl-8-(trifluoromethyl)imidazo[1,2-α]pyridin-6-yl)-2-(4-methylpiperazin-1-yl)thiazolo[4,5-d]pyrimidin-7(6H)-one]: the 50% inhibitory concentration (IC50) in assay [1], in assay [2] and in assay [3] was over 10000 nM in each case. Further, the AC50 in assay [4] (setting [5]) and in assay [4] (setting [6]) was over 10000 nM each time.
In the case of `Cc1cc(-c2cn3c(=O)cc(N4CCN(C)CC4)nc3s2)cc2cn(C)nc12` [Compound 183, 2-(2,7-dimethyl-2H-indazol-5-yl)-7-(4-methylpiperazin-1-yl)-5H-thiazolo[3,2-α]pyrimidin-5-one], the IC50 in assay [1] is 1000 to 10000 nM; in assay [2], over 10000 nM. Besides, the AC50 in assay [4] (setting [5]) and in assay [4] (setting [6]) was over 10000 nM each time.
For `Cc1cn2cc(-c3cn4c(=O)cc(N5CCN(C)CC5)nc4s3)cc(F)c2n1` [Compound 184], the IC50 in assay [1] is 1000 to 10000 nM; in assay [2], over 10000 nM. For the same molecule, the AC50 in assay [4] (setting [5]) and in assay [4] (setting [6]) was over 10000 nM in each case.
Take `CN1CCN(c2nc3ncn(-c4ccc5nn(C)cc5c4)c(=O)c3s2)CC1` [Compound 182, 6-(2-methyl-2H-indazol-5-yl)-2-(4-methylpiperazin-1-yl)thiazolo[4,5-d]pyrimidin-7(6H)-one]: the IC50 in assay [1] and in assay [2] was 1000 to 10000 nM each time. In addition, the AC50 in assay [4] (setting [5]) and in assay [4] (setting [6]) was 1000 to 10000 nM throughout.
